This passage reports IC50 results from BindingDB's records for PubMed 32066009 (Hefei University of Technology, 2020).

As a reminder, the IC50 is the point on the concentration scale where inhibition reaches its midpoint. Low readings indicate inhibition by little substance, high ones a need for much substance.

SMILES strings stand for the structures.

The target of one assay is Prothrombin (Homo sapiens, UniProt P00734). Kind of assay: Inhibition of thrombin (unknown origin).
Another assay concerns the target T1, Coagulation factor XII (Homo sapiens, UniProt P00748).
T1 sequence (P00748 whole entry): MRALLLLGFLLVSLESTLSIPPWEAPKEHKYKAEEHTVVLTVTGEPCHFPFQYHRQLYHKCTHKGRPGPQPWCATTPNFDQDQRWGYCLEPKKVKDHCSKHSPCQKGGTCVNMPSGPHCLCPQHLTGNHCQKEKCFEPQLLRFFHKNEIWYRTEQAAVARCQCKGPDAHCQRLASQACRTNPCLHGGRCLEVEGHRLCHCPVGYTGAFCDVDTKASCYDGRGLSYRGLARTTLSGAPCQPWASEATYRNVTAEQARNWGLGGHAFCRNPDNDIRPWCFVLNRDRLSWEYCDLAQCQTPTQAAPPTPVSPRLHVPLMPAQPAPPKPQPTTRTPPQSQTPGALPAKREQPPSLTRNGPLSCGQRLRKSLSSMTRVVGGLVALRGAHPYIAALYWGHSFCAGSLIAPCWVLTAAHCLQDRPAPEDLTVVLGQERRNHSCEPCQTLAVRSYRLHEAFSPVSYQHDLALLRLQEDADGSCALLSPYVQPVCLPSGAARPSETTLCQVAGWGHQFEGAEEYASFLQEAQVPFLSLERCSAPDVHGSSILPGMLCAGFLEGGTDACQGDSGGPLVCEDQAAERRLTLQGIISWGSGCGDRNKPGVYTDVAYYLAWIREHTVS
Kind of assay: Inhibition of human fXIIA by fluorescence based analysis.

The target of a further assay is Coagulation factor X (Homo sapiens, UniProt P00742). Kind of assay: Inhibition of human fXA by fluorescence based analysis.
Coagulation factor X, sequence (P00742 41-179 limits assumed): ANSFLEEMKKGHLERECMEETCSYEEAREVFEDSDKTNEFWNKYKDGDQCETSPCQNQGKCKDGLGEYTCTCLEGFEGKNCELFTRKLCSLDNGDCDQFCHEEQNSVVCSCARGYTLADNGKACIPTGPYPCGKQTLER
Coagulation factor X, sequence (P00742 235-488 limits assumed): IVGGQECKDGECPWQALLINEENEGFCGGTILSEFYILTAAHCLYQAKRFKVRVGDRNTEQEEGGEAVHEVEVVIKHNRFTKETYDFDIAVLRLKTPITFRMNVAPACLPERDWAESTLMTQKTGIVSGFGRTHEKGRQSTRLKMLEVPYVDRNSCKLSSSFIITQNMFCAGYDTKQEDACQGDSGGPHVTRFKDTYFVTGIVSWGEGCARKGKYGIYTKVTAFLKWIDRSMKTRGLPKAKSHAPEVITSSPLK

As to `CC(=O)c1ccc(NC(=O)[C@H](Cc2ccccc2)NC(=O)C2CCC(CN)CC2)cc1` (some centres undefined), the 50% inhibitory concentration (IC50) at Prothrombin is > 1 mM.

`NCC1CCC(C(=O)N[C@@H](Cc2ccccc2)C(=O)Nc2ccc(CC(=O)O)cc2)CC1` (some centres undefined): the IC50 against Prothrombin was > 1 mM. As for `CCOc1ccc(C[C@@H](NC(=O)c2ccccc2)C(=O)N[C@@H](Cc2ccccc2)C(=O)NCc2ccc(CN)cc2)cc1` [US9234000, 3], the half-maximal inhibitory concentration (IC50) at Coagulation factor XII and against Coagulation factor X was > 10 µM throughout.
